In brackets after ≈: the same amount, converted by molar mass. A value given as a limit tells only on which side of the number the result lay.

Here are results for three compounds from patent US5631244A, “mono(6-amino-6-deoxy)cyclodextrin derivatives substituted in the 6-position by an α-amino acid residue, process for their preparation and their uses” (L'Oreal, priority 1993, dated 1997).

The data set can be described thus: Solubility in water of the cyclodextrin derivatives. Type of data set: physicochemical.
`NC(CC(=O)NC[C@H]1O[C@@H]2O[C@H]3[C@H](O)[C@@H](O)[C@@H](O[C@H]4[C@H](O)[C@@H](O)[C@@H](O[C@H]5[C@H](O)[C@@H](O)[C@@H](O[C@H]6[C@H](O)[C@@H](O)[C@@H](O[C@H]7[C@H](O)[C@@H](O)[C@@H](O[C@H]8[C@H](O)[C@@H](O)[C@@H](O[C@H]1[C@H](O)[C@H]2O)O[C@@H]8CO)O[C@@H]7CO)O[C@@H]6CO)O[C@@H]5CO)O[C@@H]4CO)O[C@@H]3CO)C(=O)O` (stereo partly drawn) [Example 2(b), mono[N-(3-amino 3-carboxypropionyl)amino]-6-deoxy-β-cyclodextrin]: the solubility (as a rule, how much of the substance goes into solution per volume) is over 1000 mg/mL.

`NC(Cc1ccc(OCC(=O)NC[C@H]2O[C@@H]3O[C@H]4[C@H](O)[C@@H](O)[C@@H](O[C@H]5[C@H](O)[C@@H](O)[C@@H](O[C@H]6[C@H](O)[C@@H](O)[C@@H](O[C@H]7[C@H](O)[C@@H](O)[C@@H](O[C@H]8[C@H](O)[C@@H](O)[C@@H](O[C@H]9[C@H](O)[C@@H](O)[C@@H](O[C@H]2[C@H](O)[C@H]3O)O[C@@H]9CO)O[C@@H]8CO)O[C@@H]7CO)O[C@@H]6CO)O[C@@H]5CO)O[C@@H]4CO)cc1)C(=O)O` (stereo partly drawn) [Example 3, mono [N-4-(2'-amino 2'-carboxy ethyl) 1-(phenyloxymethylcarbonyl)amino]6-deoxy β-cyclodextrin] showed a solubility of 900 mg/mL (≈ 664 mM).

`NC(CCC(=O)NC[C@H]1O[C@@H]2O[C@H]3[C@H](O)[C@@H](O)[C@@H](O[C@H]4[C@H](O)[C@@H](O)[C@@H](O[C@H]5[C@H](O)[C@@H](O)[C@@H](O[C@H]6[C@H](O)[C@@H](O)[C@@H](O[C@H]7[C@H](O)[C@@H](O)[C@@H](O[C@H]8[C@H](O)[C@@H](O)[C@@H](O[C@H]1[C@H](O)[C@H]2O)O[C@@H]8CO)O[C@@H]7CO)O[C@@H]6CO)O[C@@H]5CO)O[C@@H]4CO)O[C@@H]3CO)C(=O)O` (stereo partly drawn) [Example 1(b), mono[N-(4-amino-4-carboxybutyryl)amino]-6-deoxy-β-cyclodextrin] had a solubility of over 1000 mg/mL.
